Assay: xn = mol fraction of the nth substance listed
Settings: Liquid; for mass density: 101.3 kPa; for viscosity: 101 kPa

CN(C)CCO [2-(N,N-dimethylamino)ethanol] + O
Settings | mass density, 293.15 K [kg/m3] | mass density, 298.15 K [kg/m3] | mass density, 303.15 K [kg/m3] | mass density, 308.15 K [kg/m3] | mass density, 313.15 K [kg/m3] | mass density, 318.15 K [kg/m3] | mass density, 323.15 K [kg/m3] | viscosity, 313.15 K [mPa·s] | viscosity, 323.15 K [mPa·s]
x1 = 0.0121 | 996.588 | 995.282 | 993.747 | 991.994 | 989.83 | 986.678 | – | – | –
x1 = 0.0218 | 995.236 | 993.748 | 992.024 | 990.035 | 987.566 | 985.311 | – | – | –
x1 = 0.0252 | 994.947 | 993.401 | 991.591 | 989.243 | 986.624 | – | – | – | –
x1 = 0.0359 | 994.033 | 992.24 | 990.239 | 988.048 | 985.713 | 983.206 | – | – | –
x1 = 0.0617 | 992.027 | 989.74 | 987.103 | 984.421 | 981.605 | 978.661 | 975.591 | – | –
x1 = 0.1009 | 988.909 | 985.747 | 982.49 | 979.144 | 975.714 | 972.197 | 968.595 | 2.669 | 1.957
x1 = 0.2017 | 973.822 | 969.911 | 965.929 | 961.896 | 957.808 | 953.663 | 949.451 | 5.071 | 3.487
x1 = 0.3033 | 956.823 | 952.768 | 948.646 | 944.47 | 940.237 | 935.946 | 931.598 | 6.593 | 4.435
x1 = 0.4051 | 941.071 | 936.991 | 932.844 | 928.641 | 924.379 | 920.062 | 915.685 | 6.58 | 4.433
x1 = 0.5077 | 927.808 | 923.722 | 919.567 | 915.367 | 911.114 | 906.806 | 902.436 | 5.885 | 4.044
x1 = 0.6099 | 916.51 | 912.41 | 908.259 | 904.055 | 899.803 | 895.501 | 891.144 | 4.784 | 3.393
x1 = 0.7652 | 903.034 | 898.903 | 894.723 | 890.503 | 886.233 | 881.923 | 877.562 | 3.467 | 2.573
x1 = 0.895 | 894.185 | 889.991 | 885.767 | 881.507 | 877.213 | 872.876 | – | 2.72 | 2.089
x1 = 1 | 887.816 | 883.578 | 879.315 | 875.017 | 870.686 | 866.316 | – | 2.238 | 1.756

Source: the NIST ThermoML archive (doi:10.1016/j.jct.2004.11.016)
